Where a name gives a salt, the structure may show the parent alone. Read-outs that look alike come from different tables or passages of the source. Marks after values point to notes of the source that are not given here.
Assays:
[1] = system: mice induced by pentobarbital sodium; assay: Hypnosis test of pentobarbital sodium in dosage above threshold; assay type: in vivo, Kunming mice; details: for Time for falling asleep / Sleeping time: 25 mg/kg gavage for 30 days, pentobarbital sodium 50 mg/kg i.p.; for Sleeping time: within 60 min; for Effect of improving sleep, in words: oral administration to mice for 30 days, summary of both hypnosis tests
Protocol: (§1) Source of animals: Kunming mice, 18˜22 g, male, were clean grade animals provided by Guangdong Medical Lab Animal Center. In the breeding room of the experimental animals, the temperature was 22±2° C., the relative humidity was 55˜70%, and the animal feed was provided by Guangdong Medical Lab Animal Center.
(§2) 3 groups of Compound 7, Compound 8, DL-3-(3′-hydroxy)-butylphthalide (DL for short) were set in the experiment, 25 mg/kg respectively. And distilled water control group was additionally set.
(§3) Sample processing: 25 mg respective sample was taken, and added with distilled water to 20 ml, to form a uniform suspension, for use in the test.
(§4) Route for administration: gavage
(§5) 40 male mice with a body weight of 18˜22 g were selected, and randomly divided into 4 groups, 10 mice in each group. They were consecutively administered with samples for 30 days, and 15 min after the administration of the samples by gavage on the 30th day, each group of animals were i.p. injected with 50 mg/kg.b.w pentobarbital sodium, and the injection amount was 0.2 ml/20 g.b.w. The criterion for judging falling asleep was that the righting reflex in a mouse disappeared for 1 min or more. The time for falling asleep and the sleeping time of each group of animals within 60 min were observed after administration of pentobarbital sodium.

[2] = system: mice induced by pentobarbital sodium; assay: Hypnosis test of pentobarbital sodium in dosage below threshold; assay type: in vivo, Kunming mice; details: for Incidence of sleep / Number of animals falling asleep: 25 mg/kg gavage, pentobarbital sodium 30 mg/kg i.p., within 25 min; for Number of animals falling asleep: 10 animals per group; for Number of animals falling asleep and incidence of sleep compared with control group, in words: pentobarbital sodium in dosage below threshold
Protocol: as §1, §2, §3, §4
as §5, with “for 28” for “for 30”, “with 30” for “with 50”, “for” for “for falling asleep and”, “the occurrence of sleep” for “the sleeping time”, “within 25” for “within 60”

rats with local ischemia [3] = assay: Volume of cerebral infarction in tMCAO rats, gavage administration; assay type: in vivo, Wistar rats; details: for Volume of cerebral infarction (25 mg/kg group): 25 mg/kg oral (gavage) 10 min after ischemia; for Volume of cerebral infarction (25 mg/kg group) / Volume of cerebral infarction (50 mg/kg group) / Volume of cerebral infarction (100 mg/kg group): 2 hr ischemia, 24 hr reperfusion; for Volume of cerebral infarction (50 mg/kg group): 50 mg/kg oral (gavage) 10 min after ischemia; for Volume of cerebral infarction (100 mg/kg group): 100 mg/kg oral (gavage) 10 min after ischemia; for Effect on the volume of cerebral infarction, in words: oral administration, compared with solvent control group
Protocol: (§6) Wistar rats, body weight 250˜280 g, were raised separately before and after the surgical operation, and kept at room temperature of 23˜25° C. All the rats were allowed ad libitum access to food and water. tMCAO models were prepared according to the method of longa, et al. Rats were anaesthetized with 10% chloral hydrate (350 mg/kg, i.p.), and the body temperature was maintained at 37±0.5° C. The rat was fixed in supine position onto an operating table. The skin was cut along the midline of the neck, and the common carotid artery (CCA), external carotid artery (ECA) and internal carotid artery (ICA) on the right side were carefully isolated. The ECA was ligated and cut, and straightened in line with the ICA. A small incision was cut on the ECA, and a 4.0 cm long round-head silicified nylon thread with a diameter of 0.26 mm (coated with 0.1% polylysine) was inserted through this incision into the ICA for about 1.85˜2.00 cm, until the starting place of the anterior cerebral artery of the rat, to block the blood supply of the middle cerebral artery. After 2 hr of ischemia, the nylon thread was pulled out carefully, the ECA incision was ligated, and the operational incision was sutured. The animal was returned to the cage for 24 hr reperfusion.
Rats were randomly divided into 12 groups: model control group, water for injection (100 mg/kg), the administration group of the Compound 7 in Example 1 (25, 50, 100 mg/kg), the administration group of the Compound 8 in Example 1 (25, 50, 100 mg/kg), the administration group of DL-3-(3′-hydroxy)-butylphthalide (DL for short) (25, 50, 100 mg/kg). They were orally administered 10 min after the ischemia caused by MCA blockage.
(§7) After reperfusion injury in the rat for 24 hr, the rat was beheaded and the brain was taken out immediately. The olfactory tract, the cerebellum and the low brain stem were removed. The brain was coronally cut into 6 slices (the first slice to the fifth slice was 2 mm/slice, and the sixth slice was 4 mm), and they were rapidly placed into 5 ml solution containing 1.5 ml 4% TTC and 0.1 ml 1 M K2HPO4 to stain (37° C., shielded from light) for 20˜30 min, wherein they are flipped once every 5 min. After the TTC staining, the normal tissue was dark stained and appeared red, and the infarcted tissue appeared white. Each group of brain slices were neatly arranged and were taken photos for preservation. The infarction area in each slice was calculated, and the infarction volume was finally converted by superposition. The infarction volume was expressed in percentage in a cerebral hemisphere, to eliminate the effects of cerebral edema. Brain infarction volume(%)=(volume of the contralateral hemisphere to the operated side−volume of uninfarcted portion of the operated hemisphere)/volume of the contralateral hemisphere to the operated side*100% (4) Experimental Results

Solubility in water = assay type: physicochemical
rats with local ischemia [4] = assay type: in vivo
Protocol: as §6, §7
Rats of the ischemia blocking model in Example 11 were taken, and randomly divided into 12 groups: sham operation group, model control group, (water for injection, 10 mg/kg), 1a group (2.5 mg/kg, 5.0 mg/kg, 10 mg/kg), 1b group (2.5 mg/kg, 5.0 mg/kg, 10 mg/kg), and 1c group (2.5 mg/kg, 5.0 mg/kg, 10 mg/kg). 10 min after ischemia caused by MCA blockage, they were administered intravenously.
The determination of the volume of cerebral infarction was the same to Example 4.

[5] = 2.5 mg/kg intravenous 10 min after ischemia, 2 hr ischemia, 24 hr reperfusion
[6] = 5.0 mg/kg intravenous 10 min after ischemia, 2 hr ischemia, 24 hr reperfusion
[7] = 10.0 mg/kg intravenous 10 min after ischemia, 2 hr ischemia, 24 hr reperfusion

In the case of CC(O)CCC1OC(=O)c2ccccc21 (racemic) [DL, DL-3-(3′-hydroxy)-butylphthalide, reference compound], the “Time for falling asleep” value [1] is reported as 4.68 ± 1.35 min, the Sleeping time [1] is reported as 45.48 ± 11.23 min and the “Effect of improving sleep, in words” value [1] is reported as “have effects of improving sleep”. For the same compound, the Incidence of sleep [2] was 50%, the “Number of animals falling asleep” value [2] was 5 and the “Number of animals falling asleep and incidence of sleep compared with control group, in words” value [2] was “have significant difference”. The “Volume of cerebral infarction (25 mg/kg group)” value (shortened to “Volume … (25 mg/kg group)”) (rats with local ischemia [3]) was 17.2%, the “Volume of cerebral infarction (50 mg/kg group)” value (“Volume … (50 mg/kg group)” for short) (rats with local ischemia [3]) was 16.4% and the “Volume of cerebral infarction (100 mg/kg group)” value (rats with local ischemia [3]) was 14.5%. For the same compound, the “Effect on the volume of cerebral infarction, in words” value (“Effect on the volume” below) (rats with local ischemia [3]) was “can significantly reduce the volume of cerebral infarction”.

With CC(O)CC[C@H]1OC(=O)c2ccccc21 (single isomer, unassigned; (+)) [Compound 7] the “Time for falling asleep” value [1] was 5.78 ± 1.88 min, the Sleeping time [1] was 41.16 ± 7.80 min and the “Effect of improving sleep, in words” value [1] was “does not have the effect of improving sleep”. The Incidence of sleep [2] was 30%, the “Number of animals falling asleep” value [2] was 3 and the “Volume … (25 mg/kg group)” value (rats with local ischemia [3]) was 19.8%. The “Volume … (50 mg/kg group)” value (rats with local ischemia [3]) was 18.9%, the “Effect on the volume” value (rats with local ischemia [3]) was “did not effectively reduce the volume of cerebral infarction” and the “Effect on the volume” value (rats with local ischemia [3]; listed as R-configuration) was “cannot affect the cerebral infarct volume”. For the same compound, the “Effect on the volume” value (rats with local ischemia [3]; listed as compound in R-configuration) was “does not have the effect of reducing the cerebral infarct volume”.

For CC(O)CC[C@@H]1OC(=O)c2ccccc21 (single isomer, unassigned; (-)) [Compound 8], the “Time for falling asleep” value [1] was 3.91 ± 0.99 min, the Sleeping time [1] was 53.28 ± 11.12 min and the “Effect of improving sleep, in words” value [1] was “have effects of improving sleep”. The “Effect of improving sleep, in words” value ([1]; listed as S-configuration) was “can improve the sleeping state in animals”, the “Effect of improving sleep, in words” value ([1]; listed as S-configuration of the Metabolite I) was “has the effect of improving sleep” and the “Time for falling asleep and sleeping time compared with control group, in words” value ([1]; pentobarbital sodium in dosage above threshold) was “have significant difference”. The “Solubility in water, in words” value (Solubility in water) was “insoluble in water”, the Incidence of sleep [2] was 80* % and the “Number of animals falling asleep” value [2] was 8*. For the same compound, the “Number of animals falling asleep and incidence of sleep compared with control group, in words” value [2] was “have significant difference”, the “Volume … (25 mg/kg group)” value (rats with local ischemia [3]) was 14.6% and the “Volume … (50 mg/kg group)” value (rats with local ischemia [3]) was 13.8%. For the same compound, the “Volume of cerebral infarction (100 mg/kg group)” value (rats with local ischemia [3]) was 11.8%, the “Effect on the volume” value (rats with local ischemia [3]) was “can significantly reduce the volume of cerebral infarction” and the “Effect on the volume” value (rats with local ischemia [3]; listed as S-configuration) was “decreasing the cerebral infarct volume”.

With CC(CC[C@@H]1OC(=O)c2ccccc21)OC(=O)CCC(=O)[O-].[Na+] (stereo partly drawn) [Compound 1a, sodium salt of (S)-3-(3′-succinate ester)butylphthalide] the “Volume of cerebral infarction (2.5 mg/kg group)” value (“Volume … (2.5 mg/kg group)” below) (rats with local ischemia [4]; [5]) was 21%, the “Volume of cerebral infarction (5.0 mg/kg group)” value (“Volume … (5.0 mg/kg group)” below) (rats with local ischemia [4]; [6]) was 15.4% and the “Volume of cerebral infarction (10.0 mg/kg group)” value (“Volume … (10.0 mg/kg group)” below) (rats with local ischemia [4]; [7]) was 11.8%.

For CC(CC[C@@H]1OC(=O)c2ccccc21)OC(=O)CN (stereo partly drawn) [Compound 1b, (S)-3-(3′-glycinate ester)butylphthalide hydrochloride], the “Volume … (2.5 mg/kg group)” value (rats with local ischemia [4]; rat, in vivo) was 21.3%, the “Volume … (5.0 mg/kg group)” value (rats with local ischemia [4]; rat, in vivo) was 16.0% and the “Volume … (10.0 mg/kg group)” value (rats with local ischemia [4]; rat, in vivo) was 12.0%.

With CC(CC[C@@H]1OC(=O)c2ccccc21)OP(=O)([O-])[O-].[Na+].[Na+] (stereo partly drawn) [Compound 1c, (S)-3-(3′-phosphate ester)butylphthalide disodium salt] the “Volume … (2.5 mg/kg group)” value (rats with local ischemia [4]; [5]) was 20.6%, the “Volume … (5.0 mg/kg group)” value (rats with local ischemia [4]; [6]) was 15.8% and the “Volume … (10.0 mg/kg group)” value (rats with local ischemia [4]; [7]) was 11.7%.
